Patent EP4291552B1, “MODULATORS OF COMPLEX I” (Boehringer Ingelheim International GmbH, priority 2021, dated 2022)

system: mice neuroblastoma cells (HT-22); assay: Determination of Cellular Protection (HT22); conditions: Mus musculus, HT-22, 16 h, read-out: HT22 IC50

Point of comparison: `CC(Nc1ccc2c(c1)/C(=C1\COCCN1)C(=O)N2C1COC1)C1CC1` (stereo not drawn) [Compound 67], IC50 37 nM. Against it:
- CN(C)c1ccc2c(c1)/C(=C1\CCCN1)C(=O)N2C [Compound 1] — 7.6-fold higher, 282 nM
- CN(C)c1ccc2c(c1)/C(=C1\COCCN1)C(=O)N2C [Compound 2] — 28-fold higher, 1050 nM
- CC(C)Nc1ccc2c(c1)/C(=C1\COCCN1)C(=O)N2C1CCOCC1 [Compound 3] — 1.9-fold higher, 71 nM
- O=C1/C(=C2/COCCN2)c2cc(N3CCOCC3)ccc2N1C1CCOCC1 [Compound 4] — 85-fold higher, 3140 nM
- CC(C)Nc1ccc2c(c1)/C(=C1\CN(C3COC3)CCN1)C(=O)N2C1CCOCC1 [Compound 5] — 5.9-fold higher, 220 nM
- CC(C)Nc1ccc2c(c1)C(=C1CCOCC1)C(=O)N2C1CCOCC1 [Compound 6] — 5.6-fold higher, 207 nM
- CC(C)N1C(=O)C(=C2CCOCC2)c2cc(N3CCCC3)ccc21 [Compound 7] — 6.9-fold higher, 256 nM
- CC(C)Nc1ccc2c(c1)/C(=C1\CN(C(C)C)CCN1)C(=O)N2C1CCN(C(C)C)CC1 [Compound 8] — within 1.5-fold, 41 nM
- CN1CCC/C1=C1/C(=O)N(C2CCOCC2)c2ccc(NC3CCC3)cc21 [Compound 9] — within 1.5-fold, 38 nM
- CCOC(=O)N1CCC(N2C(=O)/C(=C3/COCCN3)c3cc(NC(C)C)ccc32)CC1 [Compound 10] — within 1.5-fold, 31 nM
- CC(=O)N1CCN/C(=C2\C(=O)N(C3CCOCC3)c3ccc(N4CCCC4)cc32)CC1 [Compound 12] — 5.2-fold higher, 191 nM
- O=C1/C(=C2/CCOCCN2)c2cc(NC3CCCC3)ccc2N1C1CCOCC1 [Compound 13] — 2.6-fold lower, 14 nM
- O=C1/C(=C2/COCCN2)c2cc(NC3CCC3)ccc2N1C1CCOC1 (stereo not drawn) [Compound 14] — 1.9-fold lower, 20 nM
- CC(Nc1ccc2c(c1)/C(=C1\COCCN1)C(=O)N2C(C)C)c1cccnc1 (stereo not drawn) [Compound 15] — 3.1-fold higher, 115 nM
- COC1COCCC1Nc1ccc2c(c1)/C(=C1\COCCN1)C(=O)N2C(C)C (stereo not drawn) [Compound 16] — 19-fold higher, 693 nM
- CC(Nc1ccc2c(c1)/C(=C1\COCCN1)C(=O)N2C(C)C)c1ccnn1C (stereo not drawn) [Compound 17] — 4.3-fold higher, 159 nM
- O=C1/C(=C2/COCCN2)c2cc(NC3CCOCC3)ccc2N1C1CCOCC1 [Compound 18] — 11-fold higher, 409 nM
- CC(C)N1CCC(Nc2ccc3c(c2)/C(=C2\COCCN2)C(=O)N3C2CCOCC2)CC1 [Compound 19] — 4.5-fold higher, 168 nM
- CC(Nc1ccc2c(c1)/C(=C1\COCCN1)C(=O)N2C1CCOCC1)C1CC1 (stereo not drawn) [Compound 20] — within 1.5-fold, 34 nM
- O=C1/C(=C2/COCCN2)c2cc(NCc3cc[nH]n3)ccc2N1C1CCOCC1 [Compound 21] — 6.8-fold higher, 253 nM
- CC(C)N1C(=O)/C(=C2/CCOCCN2)c2cc(NC3CCC3)ccc21 [Compound 22] — 3.4-fold lower, 11 nM
- CC(C)N1CCN/C(=C2\C(=O)N(C)c3ccc(N4CCCC4)cc32)C1 [Compound 23] — 4.7-fold higher, 173 nM
- CC(C)N1C(=O)C(=C2CCOCC2)c2cc(NC3CCC3)ccc21 [Compound 25] — 2.6-fold higher, 96 nM
- CC(C)Nc1ccc2c(c1)/C(=C1\COCCN1)C(=O)N2C1COCCOC1 [Compound 26] — 1.6-fold higher, 59 nM
- CC(C)C(C)Nc1ccc2c(c1)/C(=C1\COCCN1)C(=O)N2C1COCCOC1 (stereo not drawn) [Compound 27] — 2.5-fold lower, 15 nM
- COCC(C)N1C(=O)/C(=C2/COCCN2)c2cc(NC(C)C)ccc21 (stereo not drawn) [Compound 28] — 3.2-fold higher, 118 nM
- CC1CCC(C)N1c1ccc2c(c1)/C(=C1\CCOCCN1)C(=O)N2C1CCOCC1 (stereo not drawn) [Compound 29] — 3.8-fold higher, 142 nM
- CC(C)Nc1ccc2c(c1)/C(=C1\COCCN1)C(=O)N2[C@H]1CCN(C(C)C)C1 [Compound 31] — within 1.5-fold, 41 nM
- O=C1/C(=C2/COCCN2)c2cc(NC3CCOCC3)ccc2N1C1CCOC1 (stereo not drawn) [Compound 32] — 5.5-fold higher, 205 nM
- CC(C)Nc1ccc2c(c1)/C(=C1\COCC(C)N1)C(=O)N2C1CCOCC1 (stereo not drawn) [Compound 33] — the same, 37 nM
- CC(=O)N1CCC2(CC1)CN/C(=C1\C(=O)N(C(C)C)c3ccc(NC(C)C)cc31)CO2 [Compound 34] — within 1.5-fold, 49 nM
- Nc1ccc2c(c1)/C(=C1\COCCN1)C(=O)N2C1CCOCC1 [Compound 35] — 74-fold higher, 2720 nM
- CC(C)N1C(=O)/C(=C2/COCCN2)c2cc(NC3CCOCC3)ccc21 [Compound 36] — 1.5-fold higher, 56 nM
- CC(Nc1ccc2c(c1)/C(=C1\COCCN1)C(=O)N2C(C)C)C1CCC1 (stereo not drawn) [Compound 37] — 12-fold lower, 3 nM
- CC(C)N1C(=O)/C(=C2/COCCN2)c2cc(NC3CCN(C)CC3)ccc21 [Compound 38] — within 1.5-fold, 38 nM
- CC(C)N1C(=O)/C(=C2/COCCN2)c2cc(NCC3CCOC3)ccc21 (stereo not drawn) [Compound 39] — 2.8-fold higher, 102 nM
- CN1C(=O)/C(=C2/CCNCCN2)c2cc(N3CCCC3)ccc21 [Compound 40] — 2.8-fold lower, 13 nM
- CN(C)c1ccc2c(c1)/C(=C1\CCOCCN1)C(=O)N2C [Compound 41] — 27-fold higher, 983 nM
- CN(C)c1ccc2c(c1)/C(=C1\CCCN1)C(=O)N2C1CCOCC1 [Compound 42] — 26-fold higher, 951 nM
- CNc1ccc2c(c1)/C(=C1\CCCN1)C(=O)N2C1CCOCC1 [Compound 43] — 3.4-fold higher, 124 nM
- CC(C)Nc1ccc2c(c1)/C(=C1\COCCN1)C(=O)N2C(C)C [Compound 44] — within 1.5-fold, 30 nM
- CN1C(=O)/C(=C2/CCN(C3COC3)CCN2)c2cc(N3CCCC3)ccc21 [Compound 45] — 7.1-fold higher, 261 nM
- CC(C)Nc1ccc2c(c1)/C(=C1\CN(C(C)C)CCN1)C(=O)N2C1CCOCC1 [Compound 46] — within 1.5-fold, 48 nM
- CC(C)Nc1ccc2c(c1)C(=C1CCOCC1)C(=O)N2C(C)C [Compound 47] — 2.3-fold higher, 85 nM
- CC(C)Nc1ccc2c(c1)/C(=C1\CCCN1C)C(=O)N2C1CCOCC1 [Compound 48] — 9.5-fold higher, 353 nM
- CN1CCC/C1=C1/C(=O)N(C2CCOCC2)c2ccc(NC3CCOC3)cc21 (stereo not drawn) [Compound 49] — 34-fold higher, 1250 nM
- O=C1/C(=C2/COCCN2)c2cc(NC3CCCC3)ccc2N1C1COCCOC1 [Compound 50] — 2.8-fold lower, 13 nM
- O=C1/C(=C2/COCCN2)c2cc(NC3CCC3)ccc2N1C1COC1 [Compound 51] — within 1.5-fold, 33 nM
- COCC(C)Nc1ccc2c(c1)/C(=C1\COCCN1)C(=O)N2C1CCOC1 (stereo not drawn) [Compound 52] — 5.4-fold higher, 198 nM
- CC(=O)N1CCC2(CC1)CN/C(=C1\C(=O)N(C(C)C)c3ccc(N4CCCC4)cc31)CO2 [Compound 53] — within 1.5-fold, 55 nM
- CCC(C)Nc1ccc2c(c1)/C(=C1\COCCN1)C(=O)N2C(C)C (stereo not drawn) [Compound 54] — 1.5-fold lower, 24 nM
- CC(C)N1C(=O)/C(=C2/COCCN2)c2cc(NC(C)C(C)(C)C)ccc21 (stereo not drawn) [Compound 55] — within 1.5-fold, 38 nM
- CC(Nc1ccc2c(c1)/C(=C1\COCCN1)C(=O)N2C(C)C)C1CCCC1 (stereo not drawn) [Compound 56] — 18-fold lower, 2 nM
- CC(Nc1ccc2c(c1)/C(=C1\COCCN1)C(=O)N2C(C)C)c1cnccn1 (stereo not drawn) [Compound 57] — 5.4-fold higher, 199 nM
- CC(C)N1C(=O)/C(=C2/COCCN2)c2cc(NCC3CC3)ccc21 [Compound 58] — 1.9-fold lower, 19 nM
- CCC(C)Nc1ccc2c(c1)/C(=C1\COCCN1)C(=O)N2C1CCOCC1 (stereo not drawn) [Compound 59] — 1.7-fold lower, 22 nM
- O=C1/C(=C2/COCCN2)c2cc(NC3CCCC3)ccc2N1C1CCOCC1 [Compound 60] — 3.7-fold lower, 10 nM
- CC(Nc1ccc2c(c1)/C(=C1\COCCN1)C(=O)N2C1CCOCC1)C1CCCC1 (stereo not drawn) [Compound 61] — 3.1-fold lower, 12 nM
- CN(C)c1ccc2c(c1)/C(=C1\CCCCN1)C(=O)N2C [Compound 62] — 4.4-fold higher, 162 nM
- CC(C)Nc1ccc2c(c1)/C(=C1\COCCN1)C(=O)N2C [Compound 63] — 3.6-fold higher, 134 nM
- CN1CCN/C(=C2\C(=O)N(C)c3ccc(N4CCCC4)cc32)CC1 [Compound 64] — 1.8-fold higher, 65 nM
- O=C1/C(=C2/COCCN2)c2cc(NC3CCCC3)ccc2N1C1COC1 [Compound 65] — 2.1-fold lower, 18 nM
- CC(C)C(C)Nc1ccc2c(c1)/C(=C1\COCCN1)C(=O)N2C1COC1 (stereo not drawn) [Compound 66] — 1.9-fold lower, 19 nM
- COCC(C)N1C(=O)/C(=C2/COCCN2)c2cc(N3CCCC3)ccc21 (stereo not drawn) [Compound 68] — 3.6-fold higher, 134 nM
- CC(C)Nc1ccc2c(c1)/C(=C1\COCCN1)C(=O)N2[C@H]1CCN(C2COC2)C1 [Compound 69] — 3.8-fold higher, 141 nM
- O=C1/C(=C2/CC3(CN2)COC3)c2cc(NC3CCOC3)ccc2N1C1CCOCC1 (stereo not drawn) [Compound 70] — 31-fold higher, 1150 nM
- CC(Nc1ccc2c(c1)/C(=C1\COCCN1)C(=O)N2C(C)C)c1ccccn1 (stereo not drawn) [Compound 71] — 3.5-fold higher, 131 nM
- CC(C)N1C(=O)/C(=C2/COCCN2)c2cc(NC3CCC(F)(F)CC3)ccc21 [Compound 72] — 6.2-fold lower, 6 nM
- CC(C)N1C(=O)/C(=C2/COCCN2)c2cc(NC3CCOCC3F)ccc21 (stereo not drawn) [Compound 73] — 7.1-fold higher, 264 nM
- CC(C)N1C(=O)/C(=C2/COCCN2)c2cc(NCc3cc[nH]n3)ccc21 [Compound 74] — 3.9-fold higher, 144 nM
- CC(C)N1C(=O)/C(=C2/COCCN2)c2cc(NCC3CCOCC3)ccc21 [Compound 75] — 2-fold higher, 73 nM
- CCC(CC)Nc1ccc2c(c1)/C(=C1\COCCN1)C(=O)N2C1CCOCC1 [Compound 76] — 1.5-fold lower, 24 nM
- CC(Nc1ccc2c(c1)/C(=C1\COCCN1)C(=O)N2C1CCOCC1)c1ccccn1 (stereo not drawn) [Compound 77] — within 1.5-fold, 48 nM
- O=C1/C(=C2/COCCN2)c2cc(NC3CCC(F)(F)CC3)ccc2N1C1CCOCC1 [Compound 78] — the same, 37 nM
- CC(Nc1ccc2c(c1)/C(=C1\COCCN1)C(=O)N2C1CCOCC1)c1ccnn1C (stereo not drawn) [Compound 79] — 6-fold higher, 221 nM
- O=C1/C(=C2/COCCN2)c2cc(NC3CCOCC3F)ccc2N1C1CCOCC1 (stereo not drawn) [Compound 80] — 9.3-fold higher, 345 nM
- O=C1/C(=C2/COCCN2)c2cc(NCC3CCOCC3)ccc2N1C1CCOCC1 [Compound 81] — 6.3-fold higher, 233 nM
- CC(C)Nc1ccc2c(c1)/C(=C1\CCOCCN1)C(=O)N2C(C)C [Compound 82] — within 1.5-fold, 26 nM
- Nc1ccc2c(c1)/C(=C1\CCCN1)C(=O)N2C1CCOCC1 [Compound 83] — 56-fold higher, 2080 nM
- CC1CCC(C)N1c1ccc2c(c1)/C(=C1\COCCN1)C(=O)N2C (stereo not drawn) [Compound 84] — 3.8-fold higher, 141 nM
- CC1CCN(c2ccc3c(c2)/C(=C2\COCCN2)C(=O)N3C2CCOCC2)CC1 [Compound 85] — 7.1-fold higher, 264 nM
- O=C1/C(=C2/COCCN2)c2cc(N3CCCCC3)ccc2N1C1CCOCC1 [Compound 86] — 30-fold higher, 1110 nM
- CC(C)Nc1ccc2c(c1)/C(=C1\CN(C(C)C)CCN1)C(=O)N2C(C)C [Compound 88] — 3.7-fold lower, 10 nM
- CCOC(=O)N1CCC(N2C(=O)/C(=C3/COCCN3)c3cc(N(C)C)ccc32)CC1 [Compound 89] — 13-fold higher, 493 nM
- CC(C)Nc1ccc2c(c1)/C(=C1\COCCN1)C(=O)N2C(C)(C)C [Compound 90] — within 1.5-fold, 32 nM
- CC(C)N1CCC2(CC1)CN/C(=C1\C(=O)N(C(C)C)c3ccc(N4CCCC4)cc31)CO2 [Compound 91] — 4.1-fold lower, 9 nM
